Measured values from patent US20230339922A1, “COVALENT EGFR INHIBITORS AND METHODS OF USE THEREOF” (DANA-FARBER CANCER INSTITUTE, INC., priority 2020, published 2023).

Experiments:
[1] = system: EGFR L858R/C797S Ba/F3 cells; test: Ba/F3 cell proliferation (Cell Titer Glo), EGFR L858R/C797S; type: cell-based, murine; conditions: Mus musculus, BaF3, Ba/F3 cells with EGFR L858R/C797S, 72 hours exposure, read-out: L/C797S
Description: (§1) The EGFR mutant L858R Ba/F3 cells have been previously described (Zhou, W., et al. Nature 462, 2009, 1070-1074). The EGFR C797S and C775S mutations were introduced via site directed mutagenesis using the Quick Change Site-Directed Mutagenesis kit into a vector containing EGFR […] mutation (Stratagene; La Jolla, CA) according to the manufacturer’s instructions. All constructs were confirmed by DNA sequencing. The constructs were then shuttled into the retroviral vector JP1540 by either using the Cre-recombination system (Agilent Technologies, Santa Clara, CA) or the In-fusion HD Cloning kit (Takara Bio USA, Inc.; Mountain view, CA). Ba/F3 cells were then infected with retrovirus per standard protocols, as described previously (Zhou, et al, Nature 2009). […]
(§2) Growth and inhibition of growth was assessed by the Cell Titer Glo assay (Promega, Madison, WI) and was performed according to the manufacturer’s instructions. The Cell Titer Glo assay is a luminescence-based method used to determine the number of viable cells based on quantitation of the ATP present, which is directly proportional to the amount of metabolically active cells present. Ba/F3 cells of different EGFR genotypes were exposed to compounds for 72 hours and the number of cells used per experiment was determined empirically as has been previously established (Zhou, et al., Nature 2009). […]

[2] = system: EGFR mutant L858R Ba/F3 cells; test: Ba/F3 cell proliferation (Cell Titer Glo), EGFR L858R; type: cell-based, murine; conditions: Mus musculus, BaF3, Ba/F3 cells with EGFR L858R, 72 hours exposure, read-out: L BaF3
Description: as §1, §2

EC50 [1]: 334 nM | EC50 [2]: 6 nM
SMILES: C=CC(=O)Nc1cc(C(=O)Nc2nc3cccc(C)c3n2[C@@H]2CCCCN(C(=O)C=C)C2)cs1 [compound 001]
